Earlier results in publication PMC3991022, “Comparison of Functional Protein Transduction Domains Using the NEMO Binding Domain Peptide” (Pharmaceuticals, 2010).

Test system: mouse model of collagen induced arthritis
Design: method as in PMID 15156202
Details: injection of NBD peptide

TALDWSWLQTE [NBD peptide]
amelioration of arthritis: significantly ameliorated the arthritis
